{"source": "patent US20070161697A1", "about": "“Hydrazide type compounds and the use thereof in pharmaceutical compositions for the treatment of cardiovascular diseases” (priority 2004, published 2007)", "key": {"THP1 cells [1]": {"tested_on": "THP1 cells", "assay": "Inhibition of binding and accumulation of cyanine 3-marked LDLox as lipid vesicles in differentiated THP1 macrophage cells", "assay_type": "cell-based", "conditions": "Homo sapiens, 2.5 μM", "description": "The culture medium may be replaced every two days.\nIn the present example, the accumulation of lipid vesicles within the cell was measured using THP1 cells following fixation with paraformaldehyde in PBS medium using a solution containing a fluorescent marker of the Oil Red O type in order to visualise the vesicles. The image of the cells rich in vesicles was analysed using a microscope ecqluipped with a CCD camera and software necessary for the analysis.\nThe medium was replaced every 2-3 days.\nThe differentiated THP-1 were subsequently incubated with LDLox coupled with cyanine-3 (1.5 μg/ml) in the presence or absence of the molecule CGP02-01 (concentrations of between 10^−5M and 3.1.6 10^−10M) for 24 hours at 37° C., 5% CO2. […] Each image was analysed and quantified with the MetaMorph software (Universal Imaging)."}, "THP1 cells [2]": {"tested_on": "THP1 cells", "assay": "Inhibition of binding and accumulation of cyanine 3-marked LDLox as lipid vesicles in differentiated THP1 macrophage cells", "assay_type": "cell-based", "conditions": "3 μg/ml oxLDL-cyanine 3, 25 hours, different concentrations, FIG. 7"}, "Wistar rats [3]": {"tested_on": "Wistar rats", "assay": "Insulin in plasma, rats on dietary regimen rich in fructose", "assay_type": "in vivo", "conditions": "50 mg/kg oral", "description": "Secondly, the activity of the compound CGP 02-01 was studied using a reference rat-fructose model. Groups of Wistar rats (n=12) were subjected for 3 weeks to a dietary regimen containing […] of fructose. […] Groups of rats subsequently received by forced feeding 50 mg/kg of the compound CGP 02-01 dissolved in a 2% tween solution prepared in methylcellulose. The blood samples for the biochemical analyses were performed after 1, 2 and 3 weeks. Independent groups of rats wee treated under the same conditions with metformin hydrochloride at a dose of 50 mg/kg. The metformin served as a reference in this metabolic syndrome model. Assay of insulin in plasma may be performed by radioimmunological assay using commercially available kits comprising specific anti-insulin antibodies of mice or rats. One may for example use the rat/mouse ELISA kits, Linco research (ref. EZRMI-13K)."}, "Wistar rats [4]": {"tested_on": "Wistar rats", "assay": "Circulating triglycerides, rats on dietary regimen rich in fructose", "assay_type": "in vivo", "conditions": "oral", "description": "Secondly, the activity of the compound CGP 02-01 was studied using a reference rat-fructose model. Groups of Wistar rats (n=12) were subjected for 3 weeks to a dietary regimen containing […] of fructose. […] Groups of rats subsequently received by forced feeding 50 mg/kg of the compound CGP 02-01 dissolved in a 2% tween solution prepared in methylcellulose. The blood samples for the biochemical analyses were performed after 1, 2 and 3 weeks. Independent groups of rats wee treated under the same conditions with metformin hydrochloride at a dose of 50 mg/kg. The metformin served as a reference in this metabolic syndrome model. Assay of serum triglycerides may be performed enzymatically using the commercially available kit. One may use kits from Biomérieux for example (ref. 61.238). In summary, the triglycerides are treated with a lipase in order to generate fatty acids. In the presence of ATP, the glycerol is transformed by glycerokinase into glycerol 3 phosphate. The glycerol 3 phosphate is subsequently transformed into dihydroxyacetone in generating oxygenated water (H202) which may be detected by formation of quinoneimine in the presence of parachlorophenol, amino-4-antipyrin and peroxidase. The intensity of the quinoneimine coloration is subsequently measured at 505 nm. This coloration is proportional to the quantity of triglycerides present in the sample."}, "Wistar rats [5]": {"tested_on": "Wistar rats", "assay": "Total cholesterol in plasma, rats on dietary regimen rich in fructose", "assay_type": "in vivo", "conditions": "50 mg/kg oral, 3 weeks of treatment", "description": "Secondly, the activity of the compound CGP 02-01 was studied using a reference rat-fructose model. Groups of Wistar rats (n=12) were subjected for 3 weeks to a dietary regimen containing […] of fructose. Under these conditions, the rats develop a metabolic syndrome comprising hyperglycaemia, hyperinsulinaemia, hypercholesterolaemia and hypertriglyceridaemia. Groups of rats subsequently received by forced feeding 50 mg/kg of the compound CGP 02-01 dissolved in a 2% tween solution prepared in methylcellulose. The blood samples for the biochemical analyses were performed after 1, 2 and 3 weeks. Independent groups of rats wee treated under the same conditions with metformin hydrochloride at a dose of 50 mg/kg. The metformin served as a reference in this metabolic syndrome model. The circulating total cholesterol may be measured by enzymatic assay using the commercially available kit. This assay may for example use an enzymatic sequence of the cholesterol-esterase/cholesteroloxydase/chromogenic peroxidase type. In summary, the total esterified cholesterol is transformed into free cholesterol and fatty acid by the action of cholesterol esterase. The non-esterified cholesterol is subsequently measured by the formation of quinoeimine in the presence of cholesterol oxidase and peroxidise. The intensity of the quinoneimine coloration is proportional to the quantity of cholesterol present in the sample."}, "[6]": {"conditions": "THP-1, cells expressing the scavenger CD36, lipoproteins marked with cyanine 3, read-out: Inhibition of accumulation of LDLox in (%)"}, "[7]": {"conditions": "THP-1 cells, 24 hours, read-out: Inhibition at 2.5 μM on THP-1 cells (24 hours)"}}, "note": "Structures can show the parent of a compound that is named as a salt. Where two headings read alike, the source gives them in different places.", "data": [{"smiles": "COc1cc(O)c(/C=N/NC(=O)C=Cc2ccco2)c(OC)c1", "note": "(stereo in doubt) [CGP02-02, (2Z)-3-(2-furyl)-N′-[(1E)-(2-hydroxy-4,6-dimethoxyphenyl)methylene] acrylohydrazide]", "values": [{"measurement": "inhibition at 2.5 µM", "setting": "THP1 cells [1]; [6]", "result": 64, "unit": "%"}, {"measurement": "inhibition at 2.5 µM", "setting": "THP1 cells [1]; [7]", "result": 64, "unit": "%"}, {"measurement": "Inhibition of formation of foamy cells", "setting": "THP1 cells [2]", "result": "inhibition of formation of foamy cells"}]}, {"smiles": "COc1cc(O)c(/C=N/NC(=O)c2ccc(C)s2)c(OC)c1", "note": "[CGP02-03, N′-[(1E)-(2-hydroxy-4,6-dimethoxyphenyl)methylene]-5-methylthiophene-2-carbohydrazide]", "values": [{"measurement": "inhibition at 2.5 µM", "setting": "THP1 cells [1]; [6]", "result": 82, "unit": "%"}, {"measurement": "inhibition at 2.5 µM", "setting": "THP1 cells [1]; [7]", "result": 82, "unit": "%"}, {"measurement": "Inhibition of formation of foamy cells", "setting": "THP1 cells [2]", "result": "inhibition of formation of foamy cells"}]}, {"smiles": "COc1cc(O)c(/C=N/NC(=O)c2ccc(N(C)C)cc2)c(OC)c1", "note": "[CGP02-04]", "values": [{"measurement": "inhibition at 2.5 µM", "setting": "THP1 cells [1]; [6]", "result": 61, "unit": "%"}, {"measurement": "inhibition at 2.5 µM", "setting": "THP1 cells [1]; [7]", "result": 61, "unit": "%"}]}, {"smiles": "COc1cc(O)c(/C=N/NC(=O)c2ccccc2CCc2ccccc2)c(OC)c1", "note": "[CGP02-05, 2-phenethylbenzoic acid (2-hydroxy-4,6-dimethoxy-benzylidene)-hydrazide]", "values": [{"measurement": "inhibition at 2.5 µM", "setting": "THP1 cells [1]; [6]", "result": 77, "unit": "%"}, {"measurement": "inhibition at 2.5 µM", "setting": "THP1 cells [1]; [7]", "result": 77, "unit": "%"}]}, {"smiles": "CCC(=O)Nc1cccc(C(=O)N/N=C/c2c(O)cc(OC)cc2OC)c1", "note": "[CGP02-06]", "values": [{"measurement": "inhibition at 2.5 µM", "setting": "THP1 cells [1]; [6]", "result": 71, "unit": "%"}, {"measurement": "inhibition at 2.5 µM", "setting": "THP1 cells [1]; [7]", "result": 71, "unit": "%"}]}, {"smiles": "COc1cc(O)c(/C=N/NC(=O)c2ccco2)c(OC)c1", "note": "[CGP02-07, 2-furancarboxylic acid (2-hydroxy-4,6-dimethoxy-benzylidene)-hydrazide]", "values": [{"measurement": "inhibition at 2.5 µM", "setting": "THP1 cells [1]; [6]", "result": 63, "unit": "%"}, {"measurement": "inhibition at 2.5 µM", "setting": "THP1 cells [1]; [7]", "result": 63, "unit": "%"}]}, {"smiles": "COc1cc(O)c(/C=N/NC(=O)Cc2c[nH]c3ccccc23)c(OC)c1", "note": "[CGP02-08, (1H-indol-3-yl) acetic acid (2-hydroxy-4,6-dimethoxybenzylidene)-hydrazide]", "values": [{"measurement": "inhibition at 2.5 µM", "setting": "THP1 cells [1]; [6]", "result": 58, "unit": "%"}, {"measurement": "inhibition at 2.5 µM", "setting": "THP1 cells [1]; [7]", "result": 58, "unit": "%"}]}, {"smiles": "COc1cc(O)c(/C=N/NC(=O)CC2Sc3ccccc3NC2=O)c(OC)c1", "note": "(centres unmarked) [CGP02-10]", "values": [{"measurement": "inhibition at 2.5 µM", "setting": "THP1 cells [1]; [6]", "result": 52, "unit": "%"}, {"measurement": "inhibition at 2.5 µM", "setting": "THP1 cells [1]; [7]", "result": 52, "unit": "%"}]}, {"smiles": "COc1cc(O)c(/C=N/NC(=O)c2ccccc2Oc2ccccc2)c(OC)c1", "note": "[CGP02-11, 2-phenoxy-benzoic acid (2-hydroxy-4,6-dimethoxybenzylidene)-hydrazide]", "values": [{"measurement": "inhibition at 2.5 µM", "setting": "THP1 cells [1]; [6]", "result": 44, "unit": "%"}, {"measurement": "inhibition at 2.5 µM", "setting": "THP1 cells [1]; [7]", "result": 44, "unit": "%"}]}, {"smiles": "Cc1nn(-c2ccccc2)c(C)c1/C=N/NC(=O)c1ccc([N+](=O)[O-])o1", "note": "[CGP02-12]", "values": [{"measurement": "inhibition at 2.5 µM", "setting": "THP1 cells [1]; [6]", "result": 43, "unit": "%"}, {"measurement": "inhibition at 2.5 µM", "setting": "THP1 cells [1]; [7]", "result": 43, "unit": "%"}]}, {"smiles": "COc1cc(O)c(/C=N/NC(=O)c2c(F)cccc2F)c(OC)c1", "note": "[CGP02-13, 2,6-difluorobenzoic acid (2-hydroxy-4,6-dimethoxybenzylidene)-hydrazide]", "values": [{"measurement": "inhibition at 2.5 µM", "setting": "THP1 cells [1]; [6]", "result": 68, "unit": "%"}, {"measurement": "inhibition at 2.5 µM", "setting": "THP1 cells [1]; [7]", "result": 68, "unit": "%"}]}, {"smiles": "COc1cc(O)c(/C=N/NC(=O)c2ccc(C(F)(F)F)cc2)c(OC)c1", "note": "[CGP02-16, 4-trifluoromethylbenzoic acid (2-hydroxy-4,6-dimethoxy-benzylidene)-hydrazide]", "values": [{"measurement": "inhibition at 2.5 µM", "setting": "THP1 cells [1]; [6]", "result": 77, "unit": "%"}, {"measurement": "inhibition at 2.5 µM", "setting": "THP1 cells [1]; [7]", "result": 77, "unit": "%"}]}, {"smiles": "CCN(CC)c1ccc(/C=N/NC(=O)c2ccc(OC)c(OC)c2)c(O)c1", "note": "[CGP02-17, 3,4-dimethoxybenzoic acid (4-diethylamino-2-hydroxy-benzylidene)-hydrazide]", "values": [{"measurement": "inhibition at 2.5 µM", "setting": "THP1 cells [1]; [6]", "result": 88, "unit": "%"}, {"measurement": "inhibition at 2.5 µM", "setting": "THP1 cells [1]; [7]", "result": 88, "unit": "%"}]}, {"smiles": "O=C(N/N=C/c1cc(Br)cc(Br)c1O)c1cc2ccccc2s1", "note": "[CGP02-18, benzo[b]thiophene-2-carboxylic acid (3,5-dibromo-2-hydroxy-benzylidene)-hydrazide]", "values": [{"measurement": "inhibition at 2.5 µM", "setting": "THP1 cells [1]; [6]", "result": 78, "unit": "%"}, {"measurement": "inhibition at 2.5 µM", "setting": "THP1 cells [1]; [7]", "result": 78, "unit": "%"}]}, {"smiles": "CN(C)C(=N)N=C(N)N", "note": "[Metformin, metformin hydrochloride, reference compound]", "values": [{"measurement": "Variation (reduction) of insulin level", "setting": "Wistar rats [3]", "result": 16.2, "unit": "%"}, {"measurement": "Plasma triglyceride level", "setting": "Wistar rats [4]; 50 mg/kg, 3 weeks, control 1.39±0.13", "result": "1.21 ± 0.08", "unit": "g/L"}, {"measurement": "Effect on plasma triglyceride level", "setting": "Wistar rats [4]; same conditions", "result": "does not have any effect"}, {"measurement": "Reduction in total cholesterol", "setting": "Wistar rats [5]", "result": 16, "unit": "%"}, {"measurement": "Plasma total cholesterol level", "setting": "Wistar rats [5]; control 0.79±0.05", "result": "0.66 ± 0.02", "unit": "g/L"}]}]}
